Laboratory results: patent US9656981B2, “Peripherally-acting cannabinoid receptor agonists for chronic pain” (The Regents of the University of California, priority 2012, dated 2017)
pKi: −log10 of the molar value.

Tests used:
CB2R = CB2R (Homo sapiens, UniProt P34972); test: CB2R radioligand displacement binding assay (CP55940 radioligand); conditions: Table 1; CP55940 radioligand; read-out: CB2_KI_CP
[1] = S9 fraction stability assay; type: in vitro ADME; conditions: 30 min; rat liver S9, 10 μM
Protocol: Compounds are incubated at 10 μM in rat (male Sprague Dawley) liver S9 at 37° C. Each compound is prepared in ethanol at a concentration of 1 mM. An assay mixture containing S9 (1 mg protein/mL final concentration) and an NADPH regenerating system (NADP [1 mM final], glucose 6-phosphate [5 mM final] and glucose 6-phosphate dehydrogenase [1 U/mL final]) in a buffer consisting of 50 mM KPO4 phosphate buffer, pH 7.4 with 3 mM MgCl2 is prepared and preincubated at 37° C. for 5 min. A 10 μL volume of the 1 mM solution is added to 990 μL of assay mixture in a glass test tube @ 37° C. to initiate the assay. Samples (50 μL) are removed at 0, 15, 30, 60 and 120 min and immediately extracted with 3 volumes (150 μL) of methanol, centrifuged to pellet protein and supernatants transferred to LC/MS vials for analysis.

Chain of CB2R (P34972 whole entry): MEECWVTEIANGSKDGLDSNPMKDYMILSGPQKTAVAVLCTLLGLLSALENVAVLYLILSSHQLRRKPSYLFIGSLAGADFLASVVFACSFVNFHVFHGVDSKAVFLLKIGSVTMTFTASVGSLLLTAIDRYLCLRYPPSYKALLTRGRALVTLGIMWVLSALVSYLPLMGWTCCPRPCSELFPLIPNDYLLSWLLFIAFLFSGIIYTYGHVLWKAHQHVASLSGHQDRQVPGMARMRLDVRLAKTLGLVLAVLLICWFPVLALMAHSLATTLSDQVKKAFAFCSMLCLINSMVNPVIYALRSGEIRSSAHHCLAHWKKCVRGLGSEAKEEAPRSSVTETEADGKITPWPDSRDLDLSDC

CCCc1ccc(/C=C2\C=C(CCN3CCOCC3)c3ccccc32)c2ccccc12 [Compound 9, 4-{2-[(1E)-1-[(4-propylnaphthalen-1-yl)methylidene]-1H-inden-3-yl]ethyl} morpholine]
pKi (CB2R): 9.00
S9% remaining @ xy min [1]: 39%
